Measurements taken from patent US20060122165A1, “Crystalline cefdinir” (priority 2004, published 2006).

How the values were obtained:
[1] = conversion of crystalline form B into form C on exposure to humidity or aqueous medium; format: physicochemical
Text: In another aspect of the invention, crystalline form C of cefdinir can be obtained by conversion of the crystalline form B of cefdinir, obtainable as described in US 2003/0204082 in Example 1, into crystalline form C of cefdinir. Cefdinir form B is in the form of a hydrate.
The equilibrating procedure of step a′) is preferably performed at a relative humidity of about 63% to about 75% , more preferably of about 65% to about 70%, such as of at 65% to 70%. Said equilibration may be performed in a gaseous atmosphere being e.g. air or nitrogen, preferably air having the above mentioned relative humidity. Above about 63% relative humidity, for example cefdinir form B crystals obtainable as described above convert to form C crystals. Form C crystals—once formed—are stable above a relative humidity of at least 45%.

[2] = stability of crystalline form at environmental relative humidity; format: physicochemical; settings: form maintained as trihydrate

Compound | relative humidity above which crystals convert to form C ([1]; equilibration in gaseous atmosphere (air or nitrogen)) | time for conversion into crystalline form C ([1]; exposure of pure crystalline form B to a relative humidity of at least about 65%) | time for conversion into crystalline form C ([1]; exposure of pure form B crystals to an aqueous suspending medium, preferably water) | relative humidity of environmental conditions at which the crystal form is stable [2]
C=CC1=C(C(=O)O)N2C(=O)C(NC(=O)C(=NO)c3csc(N)n3)[C@H]2SC1 (stereo partly shown) [crystalline form B of cefdinir, 7-[2-(2-aminothiazol-4-yl)-2-hydroxyiminoacetamido]-3-vinyl-3-cephem-4-carboxylic acid] | Above 63% | within minutes | within seconds | –
C=CC1=C(C(=O)O)N2C(=O)C(NC(=O)C(=NO)c3csc(N)n3)[C@H]2SC1.O.O.O (stereo partly shown) [crystalline form C of cefdinir, 7-[2-(2-aminothiazol-4-yl)-2-hydroxyiminoacetamido]-3-vinyl-3-cephem-4-carboxylic acid trihydrate] | – | – | – | at least 45%
